From patent US20140113904A1, “TREATMENT OF CANCER WITH TOR KINASE INHIBITORS” (SIGNAL PHARMACEUTICALS, LLC, priority 2012, published 2014)

Test: Mouse plasma protein binding
Format: in vitro ADME
Details: Compound 1

CO[C@H]1CC[C@H](N2C(=O)CNc3ncc(-c4ccc(C(C)(C)O)nc4)nc32)CC1 [Compound 1, 7-(6-(2-hydroxypropan-2-yl)pyridin-3-yl)-1-((1r,4r)-4-methoxycyclohexyl)-3,4-dihydropyrazino-[2,3-b]pyrazin-2(1H)-one]
mouse plasma protein binding: 88%
